One data set deals with MAC bacteria. Format: cell-based, Mycobacterium avium complex. The note with it: 2×MIC; starting inoculum 5.5 log10 CFU/ml. The protocol: In vitro, efficacy was studied in static time-kill kinetics assays (at 2×minimum inhibitory concentration [MIC]), intended to mirror a desired peak serum concentration for all three antibiotics using an established assay. All experiments were performed with a starting inoculum of 5.5 log10 CFU/ml MAC bacteria, higher than the bacterial load expected in the airway secretions of patients with mild nodular-bronchiectatic disease due to MAC.

For data set [1], the system named is MAC. Briefly: MIC of the MAC strains used in the HFS-MAC studies. Format: cell-based, Mycobacterium avium complex. The settings on record: Mycobacterium avium. The protocol:
The MAC strain used in the HFS-MAC studies was ATCC strain 700898. The study center also had 5 well-characterized clinical strains that have undergone whole-genome sequencing and habituation to the HFS-MAC. Stock cultures of MAC were stored at −80° C. in Middlebrook 7H9 broth with 10% OADC and 10% glycerol. THP-1 monocytes were stored in liquid nitrogen and have been habituated for the HFS-MAC growth conditions.

The subject of data set [2] is intracellular MAC in THP-1 monocytes. Nature of the data set: Hollow fiber system model of MAC (HFS-MAC): microbial kill. Format: cell-based, Mycobacterium avium complex. The settings on record: HF experiments.
Description: The anti-mycobacterial effects of CLR, CFZ, and RFB was evaluated in the hollow fiber system model of MAC (HFS-MAC), which recapitulates the intrapulmonary concentrations of these antibiotics. The HFS-MAC allows for an assessment of the contribution of individual drug components in terms of anti-mycobacterial effects and enables exploration of potential synergy, additivity, or antagonism of different doses of drugs and combination regimens on the log-phase growth of intracellular MAC, for both microbial kill and resistance suppression.
A two-part investigation was conducted to assess the contribution of components of various FDC products comprising CLR, CFZ, and RFB in terms of depth and rate of MAC kill and suppression of the emergence of resistance. The anti-MAC activity of each antibiotic component was evaluated as one-drug alone; as two-drug combinations and the three-drug combination. For each combination (singlet, doublet or triplet), the drug concentrations were sampled from the HF fluid bathing MAC-infected cells. […] Anti-MAC activity was evaluated by kill slopes defined as the kill rate constant (and the half-life of kill [reciprocal of the kill rate constant]) as well as the maximum kill, defined as the maximum reduction in MAC CFUs and compared between the different antibiotic combinations.
MAC was grown into log-phase for 4 days, parallel with cultivation of THP-1 monocytes. The THP-1 cells were then infected with MAC overnight at a multiplicity of infection of 1:1. The THP-1 cells were washed to remove extracellular bacteria, and 20 mL of 1×10^6 (6.0 log10) cells/mL were inoculated into each HFS-MAC on Study Day 0. The peripheral compartment is the abluminal hollow fibers space that is also enclosed by the plastic, while the intraluminal space and flow path form the central compartment. […]
In a further data set the test system is M. avium. Nature of the data set: MIC of antibiotics by broth microdilution, M. avium strains of Examples 3 and 4. Format: cell-based, Mycobacterium avium subsp. hominissuis. The settings on record: 7H10 agar plates for tissue CFU counts. The protocol:
Susceptibility testing was conducted using broth microdilution single and twofold dilutions as described in the literature. Suspensions were prepared by swabs on a growth plate with a sterile cotton swab, or were prepared in broth culture. The growth was transferred to a 4.5 mL of phosphate buffer solution (PBS) until the turbidity matched the density of a 0.5 McFarland standard. Suspensions were then vigorously mixed on a vortex mixer for 15 to 20 seconds. The final inoculum was prepared to a bacterial density of 10^5. The tube was inverted 8-10 times to mix the suspension.
Following both the four-week and eight-week treatment period, mice were sacrificed, and lungs and spleens were harvested for CFU counts in each tissue and compared to CFUs recovered in the baseline and vehicle-treated groups. Tissue samples were plated with and without antibiotic on 7H10 agar. Antibiotic plates were made with minimum inhibitory concentrations (MICs) of 8 μg/ml for clarithromycin, and 0.25, μg/ml for both rifabutin (RFB) and clofazimine (CFZ). Plates were made for each of clarithromycin (CLR) alone, clarithromycin plus either rifabutin (CLR+RFB) or clofazimine (CLR+CFZ) and the three-drug combination (CLR+RFB+CFZ). All plates were incubated in a microbiological incubator at 37° C. for 14 days.
(In general: Dilution methods test growth across graded concentrations, often in twofold steps.)

Another data set concerns M. avium 104 biofilm. Briefly: In vitro biofilm model of infection. Format: cell-based, Mycobacterium avium subsp. hominissuis. The note with it: mean ± SD; CLR 1.9-4.3 μg/mL, RFB 0.04 μg/mL, CFZ 0.0005 μg/mL.
Data set [3] relates to MAC. Nature of the data set: Lung histopathology of mice infected with MAC and treated for four and eight weeks. Format: in vivo, Mycobacterium avium complex. The note with it: 32 sections per group. From the text:
Lung and Spleen Histopathology of Mice Infected with MAC and Treated with FDC Components Alone and in Combination for Four and Eight Weeks of Treatment
Each of the experimental group had eight cut examined from each lung (8×2 lungs=16×2 mice=32 sections). Lungs were normal and not showing any pathology at pre-infection.

Data set [4] is described as follows: 7-day mouse tolerability and PK study. The settings on record: for Cavg (rifabutin): AUCtlast/24 h; for Tmax / AUC(0-t) / Cmax: female, C57BL/6, mouse, in vivo, po; for AUC(0-t): AUCtlast (rifabutin); for AUC(0-t) / Cmax: mouse plasma; for Cmax: Cmax (rifabutin). The protocol:
Sixty (60) female mice were tested, 12 per treatment groups: […]

In another data set the test system is NTM. The settings on record: mouse models of systemic and lung infection; preclinical literature; cited from earlier work.
For data set [5] the following is noted: epithelial lining fluid to total plasma/serum; cited from earlier work.
Where [6] appears, read: 20 mg/kg, Day 1, RFB 20 mg/kg alone, oral.
[7] abbreviates: 20 mg/kg, Day 7, RFB 20 mg/kg alone, oral once daily.
Where [8] appears, read: 60 mg/kg, Day 1, RFB 60 mg/kg alone, oral.
The mark [9] stands for this setting: 60 mg/kg, Day 1, RFB 60 mg/kg with CLR 200 mg/kg and CFZ 30 mg/kg, oral.
Setting [10] is: 60 mg/kg, Day 7, RFB 60 mg/kg alone, oral once daily.
Setting [11] is: 60 mg/kg, Day 7, RFB 60 mg/kg with CLR 200 mg/kg and CFZ 30 mg/kg, oral once daily.

The values that follow come from patent US11590154B2, “Triple antibiotic fixed-dose combination products, dosing regimen, methods, and kits for treating pulmonary non-tuberculosis mycobacterial infections” (priority 2020, dated 2023).

Entries after “also recorded” stand apart in the source; their conditions may differ.

Consider `CO[C@H]1/C=C/O[C@@]2(C)Oc3c(C)c(O)c4c(c3C2=O)C2=NC3(CCN(CC(C)C)CC3)NC2=C(NC(=O)/C(C)=C\C=C\[C@H](C)[C@H](O)[C@@H](C)[C@@H](O)[C@@H](C)[C@H](OC(C)=O)[C@@H]1C)C4=O` [Rifabutin, rifabutin], for which the “activity as single drugs” value with MAC bacteria is reported as “bacteriostatic activity”. Moreover, the MIC is 0.0625 µg/mL in the data set on MAC [1] (ATCC700898, MAC (ATCC 700898), laboratory strain); 0.125 µg/mL in the data set on MAC [1] (Clinical strain #1); 0.125 µg/mL in the data set on MAC [1] (Clinical strain #2); 0.125 µg/mL with MAC [1] (Clinical strain #3); 2 µg/mL with MAC [1] (Clinical strain #4); 0.125 µg/mL in the data set on MAC [1] (Clinical strain #5). Also, the “effect on CFUs / MAC killing, summary” value in data set [2] is “CFU counts increased”. The “minimum inhibitory concentrations (MICs) used for antibiotic plates” value with M. avium was determined as 0.25 µg/mL. Besides, in the data set with M. avium 104 biofilm, the “Colony Forming Unit Concentration, Four Days” value is on record as 1.41 ± 0.5 × 10^7 CFU/mL. Also, the “Colony Forming Unit Concentration, Seven Days” value in the data set with M. avium 104 biofilm is 1.64 ± 0.3 × 10^7 CFU/mL. In the data set on MAC [3], the “Lung Histopathology Findings” value is on record as “Diffuse congestion; also recorded: Infiltrates of lymphocytes are also observed in multiple locations”. Further, the “Cavg (rifabutin)” value in [4] (Day 7, RFB 20 mg/kg alone) is 1,117 ng/mL; in data set [4] (Day 7, RFB 60 mg/kg alone), 2,558 ng/mL; in [4] (Day 7, RFB 60 mg/kg with CLR 200 mg/kg and CFZ 30 mg/kg) it was 4,541 ng/mL. In addition, the Tmax in [4] (20 mg/kg) and in data set [4] (60 mg/kg) was 1 h in each case. For the same molecule, the AUC(0-t) in data set [4] (setting [6]) came out at 22100 ng·h/mL; in [4] (setting [7]), 26800 ng·h/mL; in data set [4] (setting [8]), 60200 ng·h/mL; in data set [4] (setting [9]), 60400 ng·h/mL; in [4] (setting [10]), 61400 ng·h/mL; in data set [4] (setting [11]), 109000 ng·h/mL. Moreover, the Cmax in data set [4] (setting [6]) came out at 2310 ng/mL; in data set [4] (setting [7]) it was 3140 ng/mL; in data set [4] (setting [8]), 5650 ng/mL; in data set [4] (setting [9]), 5300 ng/mL; in data set [4] (setting [10]), 5760 ng/mL; in data set [4] (setting [11]) it was 5720 ng/mL. Further, the “Effective Dose” value in the data set with NTM was 10 mg/kg/day.

On to `CO[C@H]1/C=C/O[C@@]2(C)Oc3c(C)c(O)c4c(O)c(c(/C=N/N5CCN(C)CC5)c(O)c4c3C2=O)NC(=O)/C(C)=C\C=C\[C@H](C)[C@H](O)[C@@H](C)[C@@H](O)[C@@H](C)[C@H](OC(C)=O)[C@@H]1C` [rifampin], for which the “ELF:plasma ratio” value in data set [5] is reported as “approximately 0.34”.

By MIC is commonly meant the least concentration at which growth counts as inhibited. Usually Tmax stands for the time from dosing to the highest level. In general, AUC(0-t) refers to exposure summed from dosing to a finite time, without extrapolation to infinity. A high value points to high exposure. As usually defined, the Cmax is the peak of the concentration-time curve.
